Measurements as given in ChEMBL document CHEMBL5233247, “Recent advances in DNA gyrase-targeted antimicrobial agents” (Eur J Med Chem, 2020).
In brackets after ≈: the same amount, converted by molar mass. Several values for one entry are separate records, joined by “and”; a condition that tells them apart may be missing. Identical values can stand only once. Blank lines part the entries; values can stand above or below the compound they belong to.

Legend:
DNA gyrase = DNA gyrase (Staphylococcus aureus, UniProt P0A0K8+P20831); test: Inhibition of Staphylococcus aureus DNA gyrase assessed as relaxation of pBR322 DNA by supercoiling assay; assay type: protein-complex assay
Enterococcus faecalis [1] = test: Antimicrobial activity against vancomycin-resistant Enterococcus faecalis assessed as inhibition of bacterial growth by CLSI broth micro plate assay; assay type: functional
Staphylococcus aureus [2] = test: Antimicrobial activity against methicillin-resistant Staphylococcus aureus assessed as inhibition of bacterial growth by CLSI broth micro plate assay; assay type: functional
Staphylococcus aureus [3] = test: Antimicrobial activity against methicillin-sensitive Staphylococcus aureus assessed as inhibition of bacterial growth by CLSI broth micro plate assay; assay type: functional
Enterococcus faecalis [4] = test: Antimicrobial activity against vancomycin-sensitive Enterococcus faecalis assessed as inhibition of bacterial growth by CLSI broth micro plate assay; assay type: functional
Staphylococcus aureus [5] = test: Antimicrobial activity against methicillin-resistant Staphylococcus aureus MTCC 96; assay type: functional
Bacillus subtilis [6] = test: Antibacterial activity against Bacillus subtilis; assay type: functional
Micrococcus luteus [7] = test: Antibacterial activity against Micrococcus luteus; assay type: functional
Salmonella typhimurium = test: Antibacterial activity against Salmonella typhimurium; assay type: functional, Salmonella enterica subsp. enterica serovar Typhimurium; conditions: Salmonella enterica
Escherichia coli = test: Antibacterial activity against Escherichia coli; assay type: functional
Staphylococcus aureus [8] = test: Antimicrobial activity against Staphylococcus aureus ATCC 4163 incubated for by the twofold serial agar dilution technique; assay type: functional
[9] = system: Staphylococcus epidermidis; test: Antimicrobial activity against Staphylococcus epidermidis ATCC 12228 incubated for by the twofold serial agar dilution technique; assay type: functional
Bacillus subtilis [10] = test: Antimicrobial activity against Bacillus subtilis ATCC 6633 incubated for by the twofold serial agar dilution technique; assay type: functional
Bacillus cereus = test: Antimicrobial activity against Bacillus cereus ATCC 11778 incubated for by the twofold serial agar dilution technique; assay type: functional
Staphylococcus aureus [11] = test: Antimicrobial activity against Staphylococcus aureus ATCC 6538 incubated for by the twofold serial agar dilution technique; assay type: functional
Micrococcus luteus [12] = test: Antimicrobial activity against Micrococcus luteus ATCC 9341 incubated for by the twofold serial agar dilution technique; assay type: functional
Staphylococcus aureus [13] = test: Antimicrobial activity against Staphylococcus aureus ATCC 29213 incubated for by the twofold serial agar dilution technique; assay type: functional
Micrococcus luteus [14] = test: Antimicrobial activity against Micrococcus luteus ATCC 10240 incubated for by the twofold serial agar dilution technique; assay type: functional
Staphylococcus aureus [15] = test: Antimicrobial activity against Staphylococcus aureus ATCC 25923 incubated for by the twofold serial agar dilution technique; assay type: functional

Compound: COc1cc2c(cc1OCCCC(=O)Nc1cc(NC(=O)c3ccc4sccc4c3)n(C)c1)N=C[C@@H]1CCCN1C2=O
- IC50 (DNA gyrase): 1620 nM
- MIC (Enterococcus faecalis [1]): 0.5 µg/mL (≈ 0.854 µM)
- MIC (Staphylococcus aureus [2]): 0.5 µg/mL (≈ 0.854 µM)
- MIC (Staphylococcus aureus [3]): 0.5 µg/mL (≈ 0.854 µM)
- MIC (Enterococcus faecalis [4]): 0.5 µg/mL (≈ 0.854 µM)

Compound: Cc1ccc(C(=O)Nc2ccc(NC(=O)CCC(=O)NN)cc2)o1
- MIC (Staphylococcus aureus [5]): 18.9 µM (≈ 6.25 µg/mL)

- MIC (Bacillus subtilis [6]): 0.28 µM (≈ 0.251 µg/mL)
- MIC (Micrococcus luteus [7]): 0.238 µM and 0.112 µM
- MIC (Salmonella typhimurium): 0.07 µM (≈ 0.0626 µg/mL)
- MIC (Escherichia coli): 0.14 µM (≈ 0.125 µg/mL)
Compound: COc1c(NC(=O)c2ccc(NC(=O)c3ccc(NC(=O)[C@H](CC#N)NC(=O)c4ccc(NC(=O)/C(C)=C/c5ccc(C(F)(F)F)cc5)cc4)cc3)c(OC)c2O)ccc(C(=O)O)c1O

- MIC (Staphylococcus aureus [8]): 6.25 µg/mL (≈ 17.2 µM)
- MIC [9]: 12.5 µg/mL (≈ 34.3 µM)
- MIC (Bacillus subtilis [10]): 12.5 µg/mL (≈ 34.3 µM)
- MIC (Bacillus cereus): 6.25 µg/mL (≈ 17.2 µM)
- MIC (Staphylococcus aureus [11]): 6.25 µg/mL (≈ 17.2 µM)
- MIC (Micrococcus luteus [12]): 6.25 µg/mL (≈ 17.2 µM)
- MIC (Staphylococcus aureus [13]): 6.25 µg/mL (≈ 17.2 µM)
- MIC (Micrococcus luteus [14]): 6.25 µg/mL (≈ 17.2 µM)
- MIC (Staphylococcus aureus [15]): 6.25 µg/mL (≈ 17.2 µM)
Compound: S=C(NCCc1c[nH]c2ccccc12)Nc1ccc(Cl)c(Cl)c1
